What was measured:
[1] = Cmax in beagle dog at 10 mg/kg, po measured up to 24 hrs by LC-MS/MS analysis; type: ADME, organism-based, Canis lupus familiaris; set-up: dose 10 mg/kg, route oral; conditions: in vivo
[2] = Drug level in plasma of Wistar rat at 10 mg/kg, po measured at 4 hrs by LC-MS/MS analysis; type: ADME, organism-based
[3] = Protein binding in human plasma; type: ADME, cell-free; conditions: read-out: PPB
[4] = AUC(last) in beagle dog at 1 mg/kg, iv measured up to 24 hrs by LC-MS/MS analysis; type: ADME, organism-based, Canis lupus familiaris; set-up: dose 1 mg/kg, route intravenous, time 0 - last; conditions: in vivo
[5] = Tmax in beagle dog at 10 mg/kg, po measured up to 24 hrs by LC-MS/MS analysis; type: ADME, organism-based, Canis lupus familiaris; conditions: in vivo
[6] = Oral bioavailability in beagle dog at 10 mg/kg measured up to 24 hrs by LC-MS/MS analysis; type: ADME, organism-based, Canis lupus familiaris; conditions: in vivo
[7] = Protein binding in rat plasma; type: ADME, cell-free; conditions: read-out: PPB
[8] = Oral bioavailability in rat at 10 mg/kg measured up to 24 hrs by LC-MS/MS analysis; type: ADME, organism-based; conditions: in vivo
[9] = Cytotoxicity in human HuH7 cells assessed as inhibition of cell growth at 3 uM incubated for 72 hrs by CCK8 assay relative to control; type: cell-based, Huh-7; conditions: read-out: GI
[10] = Tmax in beagle dog at 100 mg/kg, po measured up to 24 hrs by LC-MS/MS analysis; type: ADME, organism-based, Canis lupus familiaris; conditions: in vivo
[11] = biological target: CYP2D6 (Homo sapiens, UniProt P10635); assay: Inhibition of CYP2D6 in pooled human liver microsomes at 10 uM pre-incubated for 5 mins before NADPH addition and measured after 10 mins by UPLC-MS/MS analysis relative to control; type: ADME
[12] = Clearance in beagle dog at 1 mg/kg, iv measured up to 24 hrs by LC-MS/MS analysis; type: ADME, organism-based, Canis lupus familiaris; conditions: in vivo
[13] = biological target: CYP3A4 (Homo sapiens, UniProt P08684); assay: Inhibition of CYP3A4 in pooled human liver microsomes at 10 uM pre-incubated for 5 mins before NADPH addition and measured after 10 mins by UPLC-MS/MS analysis relative to control; type: ADME
[14] = Cytotoxicity in human HepG2 cells assessed as inhibition of cell growth at 3 uM incubated for 72 hrs by CCK8 assay relative to control; type: cell-based; conditions: read-out: GI
[15] = Drug metabolism in rat liver microsomes assessed as metabolic rate at 1 uM preincubated for 5 mins before NADPH addition and measured up to 30 mins by LC-MS/MS analysis; type: ADME, Microsome; conditions: 0.5 h
[16] = Cmax in beagle dog at 30 mg/kg, po measured up to 24 hrs by LC-MS/MS analysis; type: ADME, organism-based, Canis lupus familiaris; set-up: dose 30 mg/kg, route oral; conditions: in vivo
[17] = AUC (last) in rat at 10 mg/kg, po measured up to 24 hrs by LC-MS/MS analysis; type: ADME, organism-based; set-up: dose 10 mg/kg, time 0 - last, route oral; conditions: in vivo
[18] = Tmax in beagle dog at 30 mg/kg, po measured up to 24 hrs by LC-MS/MS analysis; type: ADME, organism-based, Canis lupus familiaris; conditions: in vivo
[19] = Cmax in rat at 100 mg/kg, po measured up to 24 hrs by LC-MS/MS analysis; type: ADME, organism-based; set-up: dose 100 mg/kg, route oral; conditions: in vivo
[20] = Half life in rat at 1 mg/kg, iv measured up to 24 hrs by LC-MS/MS analysis; type: ADME, organism-based; conditions: in vivo
[21] = Half life in beagle dog at 1 mg/kg, iv measured up to 24 hrs by LC-MS/MS analysis; type: ADME, organism-based, Canis lupus familiaris; conditions: in vivo
[22] = Cytotoxicity in human HEK293 cells assessed as inhibition of cell growth at 10 uM incubated for 72 hrs by CCK8 assay relative to control; type: cell-based; conditions: read-out: GI
[23] = Cmax in rat at 10 mg/kg, po measured up to 24 hrs by LC-MS/MS analysis; type: ADME, organism-based; set-up: dose 10 mg/kg, route oral; conditions: in vivo
[24] = AUC (last) in rat at 100 mg/kg, po measured up to 24 hrs by LC-MS/MS analysis; type: ADME, organism-based; set-up: dose 100 mg/kg, time 0 - last, route oral; conditions: in vivo
[25] = AUC (last) in beagle dog at 100 mg/kg, po measured up to 24 hrs by LC-MS/MS analysis; type: ADME, organism-based, Canis lupus familiaris; set-up: dose 100 mg/kg, route oral, time 0 - last; conditions: in vivo
[26] = Tmax in rat at 10 mg/kg, po measured up to 24 hrs by LC-MS/MS analysis; type: ADME, organism-based; conditions: in vivo
[27] = Ratio of dug level in liver to plasma of Wistar rat at 10 mg/kg, po measured at 4 hrs by LC-MS/MS analysis; type: ADME, organism-based
[28] = AUC (last) in beagle dog at 30 mg/kg, po measured up to 24 hrs by LC-MS/MS analysis; type: ADME, organism-based, Canis lupus familiaris; set-up: dose 30 mg/kg, route oral, time 0 - last; conditions: in vivo
[29] = Tmax in rat at 30 mg/kg, po measured up to 24 hrs by LC-MS/MS analysis; type: ADME, organism-based; conditions: in vivo
[30] = AUC(last) in rat at 1 mg/kg, iv measured up to 24 hrs by LC-MS/MS analysis; type: ADME, organism-based; set-up: dose 1 mg/kg, route intravenous, time 0 - last; conditions: in vivo
[31] = Cytotoxicity in human HEK293 cells assessed as inhibition of cell growth at 3 uM incubated for 72 hrs by CCK8 assay relative to control; type: cell-based; conditions: read-out: GI
[32] = Cytotoxicity in human HuH7 cells assessed as inhibition of cell growth at 10 uM incubated for 72 hrs by CCK8 assay relative to control; type: cell-based, Huh-7; conditions: read-out: GI
[33] = Tmax in rat at 100 mg/kg, po measured up to 24 hrs by LC-MS/MS analysis; type: ADME, organism-based; conditions: in vivo
[34] = Drug level in liver of Wistar rat at 10 mg/kg, po measured up to 8 hrs by LC-MS/MS analysis; type: ADME, organism-based; conditions: in vivo
[35] = biological target: CYP2C9 (Homo sapiens, UniProt P11712); assay: Inhibition of CYP2C9 in pooled human liver microsomes at 10 uM pre-incubated for 5 mins before NADPH addition and measured after 10 mins by UPLC-MS/MS analysis relative to control; type: ADME
[36] = Drug level in liver of Wistar rat at 10 mg/kg, po measured at 4 hrs by LC-MS/MS analysis; type: ADME, organism-based; conditions: read-out: Drug uptake
[37] = AUC (last) in beagle dog at 10 mg/kg, po measured up to 24 hrs by LC-MS/MS analysis; type: ADME, organism-based, Canis lupus familiaris; set-up: dose 10 mg/kg, time 0 - last, route oral; conditions: in vivo
[38] = AUC (last) in rat at 30 mg/kg, po measured up to 24 hrs by LC-MS/MS analysis; type: ADME, organism-based; set-up: dose 30 mg/kg, time 0 - last, route oral; conditions: in vivo
[39] = Clearance in rat at 1 mg/kg, iv measured up to 24 hrs by LC-MS/MS analysis; type: ADME, organism-based; conditions: in vivo
[40] = Volume of distribution at steady state in beagle dog at 1 mg/kg, iv measured up to 24 hrs by LC-MS/MS analysis; type: ADME, organism-based, Canis lupus familiaris; conditions: in vivo, read-out: Vdss
[41] = Cmax in rat at 30 mg/kg, po measured up to 24 hrs by LC-MS/MS analysis; type: ADME, organism-based; set-up: dose 30 mg/kg, route oral; conditions: in vivo
[42] = Drug metabolism in human liver microsomes assessed as metabolic rate at 1 uM preincubated for 5 mins before NADPH addition and measured up to 30 mins by LC-MS/MS analysis; type: ADME, Microsome; conditions: 0.5 h
[43] = Cytotoxicity in human HepG2 cells assessed as inhibition of cell growth at 10 uM incubated for 72 hrs by CCK8 assay relative to control; type: cell-based; conditions: read-out: GI
[44] = Volume of distribution at steady state in rat at 1 mg/kg, iv measured up to 24 hrs by LC-MS/MS analysis; type: ADME, organism-based; conditions: in vivo, read-out: Vdss
[45] = Cmax in beagle dog at 100 mg/kg, po measured up to 24 hrs by LC-MS/MS analysis; type: ADME, organism-based, Canis lupus familiaris; set-up: dose 100 mg/kg, route oral; conditions: in vivo
[46] = Toxicity in beagle dog assessed as induction of emesis at 10 mg/kg measured up to 24 hrs; type: organism-based, Canis lupus familiaris; conditions: in vivo

CYP2C9, sequence (P11712 whole entry): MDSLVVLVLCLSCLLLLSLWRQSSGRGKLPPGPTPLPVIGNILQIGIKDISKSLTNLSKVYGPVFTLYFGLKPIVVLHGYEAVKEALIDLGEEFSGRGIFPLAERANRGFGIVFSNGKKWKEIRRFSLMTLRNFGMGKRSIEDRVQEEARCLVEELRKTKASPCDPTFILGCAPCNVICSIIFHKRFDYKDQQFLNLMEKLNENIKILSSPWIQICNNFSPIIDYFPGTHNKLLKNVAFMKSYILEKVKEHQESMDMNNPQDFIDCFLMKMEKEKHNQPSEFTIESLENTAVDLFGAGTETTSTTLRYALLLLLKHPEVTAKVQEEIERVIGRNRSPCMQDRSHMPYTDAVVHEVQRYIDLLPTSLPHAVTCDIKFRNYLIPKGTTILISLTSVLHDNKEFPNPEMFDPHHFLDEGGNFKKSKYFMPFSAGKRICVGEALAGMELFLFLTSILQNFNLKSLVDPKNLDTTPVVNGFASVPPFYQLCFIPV
CYP2D6, sequence (P10635 whole entry): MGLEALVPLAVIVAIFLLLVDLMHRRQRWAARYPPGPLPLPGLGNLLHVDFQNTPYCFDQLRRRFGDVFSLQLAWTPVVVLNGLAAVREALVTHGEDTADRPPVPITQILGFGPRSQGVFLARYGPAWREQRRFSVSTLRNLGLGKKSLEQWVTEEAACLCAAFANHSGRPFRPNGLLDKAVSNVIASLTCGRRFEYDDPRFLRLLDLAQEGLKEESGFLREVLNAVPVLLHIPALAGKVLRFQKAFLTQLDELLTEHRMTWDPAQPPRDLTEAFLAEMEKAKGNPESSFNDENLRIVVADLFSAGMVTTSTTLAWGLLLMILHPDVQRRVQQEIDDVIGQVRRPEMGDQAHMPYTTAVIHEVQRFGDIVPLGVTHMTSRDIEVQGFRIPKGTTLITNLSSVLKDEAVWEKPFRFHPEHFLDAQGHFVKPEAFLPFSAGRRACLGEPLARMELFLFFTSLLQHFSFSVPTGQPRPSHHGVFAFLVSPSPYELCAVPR
CYP3A4, sequence (P08684 whole entry): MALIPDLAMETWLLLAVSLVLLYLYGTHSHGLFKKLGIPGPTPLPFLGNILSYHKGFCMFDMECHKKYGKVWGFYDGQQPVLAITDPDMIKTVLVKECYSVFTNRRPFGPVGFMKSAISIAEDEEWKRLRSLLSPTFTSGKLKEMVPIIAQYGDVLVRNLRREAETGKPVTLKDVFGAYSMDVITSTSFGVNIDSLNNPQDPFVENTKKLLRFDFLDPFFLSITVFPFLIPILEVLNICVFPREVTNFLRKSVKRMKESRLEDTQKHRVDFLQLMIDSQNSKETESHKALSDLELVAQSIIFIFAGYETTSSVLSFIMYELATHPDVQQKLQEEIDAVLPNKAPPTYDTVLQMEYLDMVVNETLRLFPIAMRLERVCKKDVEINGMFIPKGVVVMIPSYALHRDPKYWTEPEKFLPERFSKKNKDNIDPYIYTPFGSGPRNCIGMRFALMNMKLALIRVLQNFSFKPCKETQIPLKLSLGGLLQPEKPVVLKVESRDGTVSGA

COC(=O)N[C@H](C(=O)N1CCC[C@H]1c1ncc(-c2ccc3c(ccc4cc(-c5cnc([C@@H]6CCCN6C(=O)[C@@H](NC(=O)OC)C(C)C)[nH]5)sc43)c2)[nH]1)C(C)C
Cmax [1]: 5 µM
concentration at 4 h [2]: 0.6 µM
fraction unbound [3]: < 0.01
AUC(0-t) at 24 h [4]: 3 µM·h
Tmax [5]: 1 h
bioavailability [6]: 100%
fraction unbound [7]: < 0.01
bioavailability [8]: 30%
inhibition at 72 h, 3 µM [9]: 0%
Tmax [10]: 3 h
inhibition at 10 min, 10 µM [11]: 12%
clearance [12]: 6 mL/min/kg
inhibition at 10 min, 10 µM [13]: 12%
inhibition at 72 h, 3 µM [14]: 3%
Drug metabolism [15]: 0.01 nmol/min/mg
Cmax [16]: 10 µM
AUC(0-t) at 24 h [17]: 4 to 6 µM·h
Tmax [18]: 4 h
Cmax [19]: 15 µM
half-life [20]: 2 h
half-life [21]: 4 h
inhibition at 72 h, 10 µM [22]: 36%
Cmax [23]: 0.9 to 1 µM
AUC(0-t) at 24 h [24]: 127 µM·h
AUC(0-t) at 24 h [25]: 179 µM·h
Tmax [26]: 4 to 6 h
Kp at 4 h [27]: 14.5
AUC(0-t) at 24 h [28]: 86 µM·h
Tmax [29]: 4 to 6 h
AUC(0-t) at 24 h [30]: 2 µM·h
inhibition at 72 h, 3 µM [31]: 0%
inhibition at 72 h, 10 µM [32]: 14%
Tmax [33]: 4 to 6 h
Drug uptake [34]: Active
inhibition at 10 min, 10 µM [35]: 42%
concentration at 4 h [36]: 8.5 µM
AUC(0-t) at 24 h [37]: 49 µM·h
AUC(0-t) at 24 h [38]: 24 µM·h
clearance [39]: 11 mL/min/kg
Vd [40]: 2 L/kg
Cmax [41]: 3 µM
Drug metabolism [42]: 0.04 nmol/min/mg
inhibition at 72 h, 10 µM [43]: 22%
Vd [44]: 2 L/kg
Cmax [45]: 17 µM

COC(=O)N[C@H](C(=O)N1CCC[C@H]1c1ncc(-c2ccc3c(c2)CCc2cc(-c4cnc([C@@H]5CCCN5C(=O)[C@@H](NC(=O)OC)C(C)C)[nH]4)sc2-3)[nH]1)C(C)C
Cmax [1]: 6 µM
concentration at 4 h [2]: 1.25 µM
fraction unbound [3]: < 0.01
AUC(0-t) at 24 h [4]: 4 µM·h
bioavailability [6]: 37 to 100%
fraction unbound [7]: < 0.01
bioavailability [8]: 30%
inhibition at 72 h, 3 µM [9]: 2%
inhibition at 10 min, 10 µM [11]: 36%
clearance [12]: 5 mL/min/kg
inhibition at 10 min, 10 µM [13]: 56%
inhibition at 72 h, 3 µM [14]: 0%
Drug metabolism [15]: 0.01 nmol/min/mg
AUC(0-t) at 24 h [17]: 6 to 24 µM·h
Cmax [19]: 43 µM
half-life [20]: 1.5 h
half-life [21]: 4 h
inhibition at 72 h, 10 µM [22]: 28%
Cmax [23]: 1.6 to 6 µM
AUC(0-t) at 24 h [24]: 468 µM·h
Tmax [26]: 0.25 to 2 h
Kp at 4 h [27]: 6
Tmax [29]: 1 to 4 h
AUC(0-t) at 24 h [30]: 2 µM·h
inhibition at 72 h, 3 µM [31]: 2%
Tmax [33]: 2 to 4 h
Drug uptake [34]: Active
inhibition at 10 min, 10 µM [35]: 35%
concentration at 4 h [36]: 7.4 µM
AUC(0-t) at 24 h [37]: 11 to 93 µM·h
AUC(0-t) at 24 h [38]: 77 µM·h
Activity [46]: Toxic
clearance [39]: 10 mL/min/kg
Vd [40]: 1 L/kg
Cmax [41]: 14 µM
Drug metabolism [42]: 0.01 nmol/min/mg
inhibition at 72 h, 10 µM [43]: 6%
Vd [44]: 1.1 L/kg

From ChEMBL document CHEMBL4321845, “Discovery and Characterization of Potent Pan-Genotypic HCV NS5A Inhibitors Containing Novel Tricyclic Central Core Leading to Clinical Candidate” (J Med Chem, 2019)
